Results on 13 compounds are retold here after patent US20250382277A1, “SMALL MOLECULE INHIBITORS OF DYRK/CLK AND USES THEREOF” (Arizona Board of Regents on Behalf of the University of …, priority 2022, published 2025).

The target in one test is DYRK1A (Homo sapiens, UniProt Q13627). In words: biochemical.
In the next test the test system is WNT signaling. In words: WNT reporter assay (TopGFP reporter). The format is cell-based. The conditions noted are these: Human Colonic Epithelial Cells (HCEC) with TopGFP reporter, stimulated with 10 μM CHIR99021, 24 hours. From the text:
KDs were obtained from Eurofins.

By Kd is commonly meant a measure of binding affinity in units of concentration. The EC50 is the concentration needed to bring the measured effect to its halfway point. Higher therefore signals a need for much substance.

Structures can show the parent of a compound that is named as a salt.

Experimental for DYRK1A: KDs were obtained from Eurofins. The KdELECT Kinase Assay Panel enables quantitated compound binding affinity against any kinase assay. Inhibitor binding constants (Kd values) are calculated from duplicate 11-point dose-response curves. Measurements are made under optimized conditions that generate true thermodynamic Kd values which facilitate direct comparison of inhibitor affinity across kinases.

`Nc1cc(-c2ccc3ncnc(-c4cnc(N5CCNCC5)c(F)c4)c3c2)ccn1` [Compound 24, 4-(4-(5-fluoro-6-(piperazin-1-yl)pyridin-3-yl)quinazolin-6-yl)pyridin-2-amine hydrochloride] yielded a Kd on DYRK1A of under 100 nM. Further, in the test with WNT signaling, the EC50 is over 1000 nM.
Compound `Fc1cc(-c2ncnc3ccc(-c4c[nH]c5ncccc45)cc23)ccc1N1CCNCC1` [Compound 33, 4-(3-fluoro-4-(piperazin-1-yl)phenyl)-6-(1H-pyrrolo[2,3-b]pyridin-3-yl)quinazoline] showed a Kd on DYRK1A of under 100 nM. This compound also came in with an EC50 in the test with WNT signaling of 100 to 1000 nM.
The matching figures for `CC(=O)N1CCN(c2ccc(-c3ncnc4ccc(-c5ccnc(N)c5)cc34)cc2)CC1` [Compound 22, 1-(4-(4-(6-(2-aminopyridin-4-yl)quinazolin-4-yl)phenyl)piperazin-1-yl)ethan-1-one]: under 100 nM and under 100 nM.
For `CC(=O)N1CCN(c2ccc(-c3ncnc4ccc(-c5ccnc(N)c5)cc34)cc2F)CC1` [Compound 34, 1-(4-(4-(6-(2-aminopyridin-4-yl)quinazolin-4-yl)-2-fluorophenyl)piperazin-1-yl)ethan-1-one] the same measures were under 100 nM and 100 to 1000 nM.
`CC(=O)N1CC2(C1)CN(c1ccc(-c3ncnc4ccc(-c5ccnc(N)c5)cc34)cc1)C2` [Compound 44, 41-(6-(4-(6-(2-aminopyridin-4-yl)quinazolin-4-yl)phenyl)-2,6-diazaspiro[3.3]heptan-2-yl)ethan-1-one] yielded a Kd on DYRK1A of under 100 nM. In the test on WNT signaling, this compound registered a concentration giving a half-maximal response (EC50) of 100 to 1000 nM.
In the case of `COCCN1CCN(c2ccc(-c3ncnc4ccc(-c5ccnc(N)c5)cc34)cc2F)CC1` [Compound 54, 4-(4-(3-fluoro-4-(4-(2-methoxyethyl)piperazin-1-yl)phenyl)quinazolin-6-yl)pyridin-2-amine], the Kd at DYRK1A is under 100 nM. For the same compound, the EC50 in the test on WNT signaling was under 100 nM.
For the compound `CC1(C)CN(c2ncc(-c3ncnc4ccc(-c5ccnc(N)c5)cc34)cc2F)CCO1` [Compound 20, 4-(4-(6-(2,2-dimethylmorpholino)-5-fluoropyridin-3-yl)quinazolin-6-yl)pyridin-2-amine], the Kd at DYRK1A was under 100 nM. The compound further yielded an EC50 in the test with WNT signaling of over 1000 nM.
`CN(C)C(=O)N1CCN(c2ccc(-c3ncnc4ccc(-c5ccnc(N)c5)cc34)cc2F)CC1` [Compound 49, 4-(4-(6-(2-aminopyridin-4-yl)quinazolin-4-yl)-2-fluorophenyl)-N,N-dimethylpiperazine-1-carboxamide]: the Kd on DYRK1A was under 100 nM. Further, the half-maximal effective concentration (EC50) in the test on WNT signaling is under 100 nM.
Regarding `Nc1cc(-c2ccc3ncnc(-c4ccc(N5CCOCC5)c(F)c4)c3n2)ccn1` [Compound 12, 4-(4-(3-fluoro-4-morpholinophenyl)pyrido[3,2-d]pyrimidin-6-yl)pyridin-2-amine], the dissociation constant (Kd) at DYRK1A was under 100 nM. For the same compound, in the test with WNT signaling, the EC50 is under 100 nM.
Turning to `Nc1cc(-c2ccc3ncnc(-c4ccc(CN5CCOCC5)c(F)c4)c3c2)ccn1` [Compound 3, 4-(4-(3-fluoro-4-(morpholinomethyl)phenyl)quinazolin-6-yl)pyridin-2-amine], the Kd at DYRK1A was under 100 nM. Further, in the test with WNT signaling, the EC50 was 100 to 1000 nM.
On DYRK1A, `CN1CCN(c2ncc(-c3ncnc4ccc(-c5ccnc(N)c5)cc34)cc2F)CC1` [Compound 9, 4-(4-(5-fluoro-6-(4-methylpiperazin-1-yl)pyridin-3-yl)quinazolin-6-yl)pyridin-2-amine] came in with a Kd of under 100 nM. The same compound gave an EC50 with WNT signaling of 100 to 1000 nM.
For `COc1ccc(-c2ncnc3ccc(-c4ccnc(N)c4)cc23)cc1C` [Compound 21, 4-(4-(4-methoxy-3-methylphenyl)quinazolin-6-yl)pyridin-2-amine] the same measures were under 100 nM and 100 to 1000 nM.
In turn, `CN1CCN(c2ncc(-c3ncnc4ccc(-c5c[nH]c6ncccc56)cc34)cc2F)CC1` [Compound 26, 4-(5-fluoro-6-(4-methylpiperazin-1-yl)pyridin-3-yl)-6-(1H-pyrrolo[2,3-b]pyridin-3-yl)quinazoline] registered a Kd on DYRK1A of under 100 nM. Moreover, the EC50 in the test with WNT signaling fell in the range of 100 to 1000 nM.
